Test results: patent US8986696B2, “Trans-capsular administration of p38 map kinase inhibitors into orthopedic joints” (DePuy Mitek, Inc., priority 2007, dated 2015)

Legend:
[1] = test system: rabbit anterior cruciate ligament transection (ACLT) model of osteoarthritis; assay: ACLT model pilot study, JNJ 3026582 (Example VI); format: in vivo
Description: New Zealand white rabbits (male, six to eight pounds) were anesthetized with ketamine (17 mg/kg) and xylazine (2.5 mg/kg). Supplementation was given during surgery, if needed, with an additional intramuscular injection of ketamine (35 mg/kg) and xylazine (5 mg/kg). The animals were given buprenorphine (0.01-0.05 mg/kg) for analgesia via a subcutaneous injection. The buprenorphine was administered every twelve hours for seventy-two hours. After induction of anesthesia, the right leg was clipped free of hair using electric animal clippers. The area around the site of surgery was scrubbed with chlorhexidine diacetate, rinsed with alcohol, dried, and painted with an aqueous iodophor solution of 1% available iodine and surgery was prepared using aseptic technique. In the right limb of each animal, the anterior cruciate ligament (ACL) was transected. A medial parapatellar incision was made and the patella was dislocated. The knee was flexed and the ACL visualized. A scalpel blade was positioned behind the ACL and brought anteriorly, thereby cutting the ACL while protecting the posterior cruciate ligament. The patella was returned to the normal anatomic position. The wound was closed in layers.
Following surgery, the animals were left untreated for six weeks. After six weeks, a series of five injections of the test compound were injected intra-articularly once weekly.
The animals were euthanized six weeks after initiation with an intravenous injection of pentobarbital (60 mg/kg). […] Immediately following euthanasia, gross observations of the knee joints were made and any abnormality was recorded. The joints were analyzed for disease state in the trochlear groove, the femoral condyles and the tibial plateau. Pathological assessments were performed on the sectioned tissue. Condylar structure, cellularity, presence of GAG and presence of cartilage were evaluated.
Sterile formulations of JNJ 3026582 (RWJ 67657) were prepared by gamma irradiation (1.5 mRAD) on dry ice. DMSO was sterile filtered and the remaining formulations were prepared aseptically. Specifically, 11.5 mg of JNJ 3026582 (RWJ 67657) was dissolved in 4 mL DMSO and the solution was thoroughly mixed with 5 mL of ARTHREASE® (Lot: 11840812) (Biotechnology General (Israel) Ltd.). The final concentration of JNJ 3026582 (RWJ 67657) in the formulation was 1.3 μg/μL and was considered the high dose. The mid dose was made by a 1:10 dilution of the high dose. The low dose was created in the same fashion as the mid dose i.e., by a 1:10 dilution of the mid dose.
A total of four rabbits (n=4) underwent ACLT of the right limb according to the ACLT model described above.
As discussed above, each formulation was injected once per week for five weeks. 160 μI was injected each time via a 26G (gauge) needle. The vehicle for the formulation was ARTHREASE® (Bio-Technology General (Israel) Ltd.).
At the time of sacrifice, the following parameters were evaluated grossly (the scale follows in parenthesis):
Each parameter was given a score. The combination of all parameters gave a Total Score. A higher score indicates more damage to the joint. The most clinically relevant parameters are discussed in detail below.

JNK = JNK inhibition; format: biochemical
COX1 = COX1 (Homo sapiens, UniProt P23219); assay: COX1 inhibition; format: biochemical
Chain of COX1 (P23219 24-599): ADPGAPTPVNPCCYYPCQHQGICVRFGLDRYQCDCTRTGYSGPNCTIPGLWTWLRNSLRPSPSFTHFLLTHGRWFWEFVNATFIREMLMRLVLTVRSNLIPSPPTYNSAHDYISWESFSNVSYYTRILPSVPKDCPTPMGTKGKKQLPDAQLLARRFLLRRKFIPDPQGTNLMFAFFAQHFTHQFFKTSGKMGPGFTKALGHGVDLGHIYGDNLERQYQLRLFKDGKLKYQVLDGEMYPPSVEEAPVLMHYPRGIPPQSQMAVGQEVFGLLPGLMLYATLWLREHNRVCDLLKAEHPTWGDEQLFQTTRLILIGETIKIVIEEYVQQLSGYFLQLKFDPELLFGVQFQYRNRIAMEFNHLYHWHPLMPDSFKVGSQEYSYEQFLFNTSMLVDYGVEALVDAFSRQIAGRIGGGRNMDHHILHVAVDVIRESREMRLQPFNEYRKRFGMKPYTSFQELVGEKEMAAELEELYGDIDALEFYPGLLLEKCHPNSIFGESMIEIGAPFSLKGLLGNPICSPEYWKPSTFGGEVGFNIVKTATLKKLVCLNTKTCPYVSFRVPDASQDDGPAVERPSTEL

OCCC#Cc1nc(-c2ccc(F)cc2)c(-c2ccncc2)n1CCCc1ccccc1 [JNJ 3026582 (RWJ 67657), 4-[4-(4-fluorophenyl)-1-(3-phenylpropyl)-5-(4-pyridinyl)-1H-imidazol-2-yl]-3-butyn-1-ol]
Appearance of Meniscus Lateral, mean score ([1]; High 50 μg/kg): 2.00
Appearance of Meniscus Medial, mean score ([1]; High 50 μg/kg): 2.25
Appearance of Patella, mean score ([1]; High 50 μg/kg): 1.25
Femoral Condyle Presence of Clefts, mean score ([1]; High 50 μg/kg): 0
Tibial Plateau (Lateral) # of Osteophytes, mean score ([1]; High 50 μg/kg): 2.00
Tibial Plateau (Lateral) Depth of Erosion, mean score ([1]; High 50 μg/kg): 2.06
Tibial Plateau (Lateral) Presence of Clefts, mean score ([1]; High 50 μg/kg): 0
Tibial Plateau (Lateral) Surface Area Erosion, mean score ([1]; High 50 μg/kg): 2.50
Tibial Plateau (Medial) # of Osteophytes, mean score ([1]; High 50 μg/kg): 1.63
Tibial Plateau (Medial) Depth of Erosion, mean score ([1]; High 50 μg/kg): 1.94
Tibial Plateau (Medial) Presence of Clefts, mean score ([1]; High 50 μg/kg): 0
Tibial Plateau (Medial) Surface Area Erosion, mean score ([1]; High 50 μg/kg): 2.50
Trochlear Groove # of Osteophytes, mean score ([1]; High 50 μg/kg): 3.00
Trochlear Groove Erosion of Cartilage, mean score ([1]; High 50 μg/kg): 1.25
Trochlear Groove Osteophyte Size, mean score ([1]; High 50 μg/kg): 3.00
Trochlear Groove Thickening, mean score ([1]; High 50 μg/kg): 0.25
Appearance of Meniscus Lateral, mean score ([1]; Low 0.5 μg/kg): 1.25
Appearance of Meniscus Medial, mean score ([1]; Low 0.5 μg/kg): 1.25
Appearance of Patella, mean score ([1]; Low 0.5 μg/kg): 0.50
Femoral Condyle Presence of Clefts, mean score ([1]; Low 0.5 μg/kg): 0
Tibial Plateau (Lateral) # of Osteophytes, mean score ([1]; Low 0.5 μg/kg): 1.75
Tibial Plateau (Lateral) Depth of Erosion, mean score ([1]; Low 0.5 μg/kg): 2.13
Tibial Plateau (Lateral) Presence of Clefts, mean score ([1]; Low 0.5 μg/kg): 0
Tibial Plateau (Lateral) Surface Area Erosion, mean score ([1]; Low 0.5 μg/kg): 2.00
Tibial Plateau (Medial) # of Osteophytes, mean score ([1]; Low 0.5 μg/kg): 1.50
Tibial Plateau (Medial) Depth of Erosion, mean score ([1]; Low 0.5 μg/kg): 0.50
Tibial Plateau (Medial) Presence of Clefts, mean score ([1]; Low 0.5 μg/kg): 0
Tibial Plateau (Medial) Surface Area Erosion, mean score ([1]; Low 0.5 μg/kg): 0.25
Trochlear Groove # of Osteophytes, mean score ([1]; Low 0.5 μg/kg): 3.00
Trochlear Groove Erosion of Cartilage, mean score ([1]; Low 0.5 μg/kg): 1.00
Trochlear Groove Osteophyte Size, mean score ([1]; Low 0.5 μg/kg): 3.00
Trochlear Groove Thickening, mean score ([1]; Low 0.5 μg/kg): 0.50
Appearance of Meniscus Lateral, mean score ([1]; Mid 5 μg/kg): 1.00
Appearance of Meniscus Medial, mean score ([1]; Mid 5 μg/kg): 2.5
Appearance of Patella, mean score ([1]; Mid 5 μg/kg): 1.38
Femoral Condyle Presence of Clefts, mean score ([1]; Mid 5 μg/kg): 0
Tibial Plateau (Lateral) # of Osteophytes, mean score ([1]; Mid 5 μg/kg): 2.25
Tibial Plateau (Lateral) Depth of Erosion, mean score ([1]; Mid 5 μg/kg): 0.88
Tibial Plateau (Lateral) Presence of Clefts, mean score ([1]; Mid 5 μg/kg): 0
Tibial Plateau (Lateral) Surface Area Erosion, mean score ([1]; Mid 5 μg/kg): 2.25
Tibial Plateau (Medial) # of Osteophytes, mean score ([1]; Mid 5 μg/kg): 2.00
Tibial Plateau (Medial) Depth of Erosion, mean score ([1]; Mid 5 μg/kg): 1.13
Tibial Plateau (Medial) Presence of Clefts, mean score ([1]; Mid 5 μg/kg): 0
Tibial Plateau (Medial) Surface Area Erosion, mean score ([1]; Mid 5 μg/kg): 2.00
Trochlear Groove # of Osteophytes, mean score ([1]; Mid 5 μg/kg): 3.00
Trochlear Groove Erosion of Cartilage, mean score ([1]; Mid 5 μg/kg): 1.63
Trochlear Groove Osteophyte Size, mean score ([1]; Mid 5 μg/kg): 3.00
Trochlear Groove Thickening, mean score ([1]; Mid 5 μg/kg): 0.75
All Cartilage Effects (0-38), average score ([1]; high dose 50 μg/kg): 19.19
All Condylar Effects (0-18), average score ([1]; high dose 50 μg/kg): 8.69
All Meniscal Effects (0-6), average score ([1]; high dose 50 μg/kg): 4.25
Total Score (0-59), average ([1]; high dose 50 μg/kg): 34.31
lateral femoral condyle % surface area erosion, average score ([1]; high dose 50 μg/kg): 2.5
medial femoral condyle % surface area erosion, average score ([1]; high dose 50 μg/kg): 2.25
All Cartilage Effects (0-38), average score ([1]; low dose 0.5 μg/kg): 12.75
All Condylar Effects (0-18), average score ([1]; low dose 0.5 μg/kg): 6.38
All Meniscal Effects (0-6), average score ([1]; low dose 0.5 μg/kg): 2.50
Total Score (0-59), average ([1]; low dose 0.5 μg/kg): 25.00
lateral femoral condyle % surface area erosion, average score ([1]; low dose 0.5 μg/kg): 1.23
medial femoral condyle % surface area erosion, average score ([1]; low dose 0.5 μg/kg): 1.5
All Cartilage Effects (0-38), average score ([1]; mid dose 5 μg/kg): 14.50
All Condylar Effects (0-18), average score ([1]; mid dose 5 μg/kg): 5.88
All Meniscal Effects (0-6), average score ([1]; mid dose 5 μg/kg): 3.50
Total Score (0-59), average ([1]; mid dose 5 μg/kg): 29.63
lateral femoral condyle % surface area erosion, average score ([1]; mid dose 5 μg/kg): 0.75
medial femoral condyle % surface area erosion, average score ([1]; mid dose 5 μg/kg): 1.63

C[C@H](Nc1nccc(-c2c(-c3ccc(F)cc3)nc3nc(N)ccn23)n1)c1ccccc1 [JNJ 7583979 (RWJ 351958)]
IC50 (JNK): 0.012 µM

CC(=O)N1CCN(c2c(-c3ccncc3)c(-c3ccc(F)cc3)c(C#N)n2C)CC1 [JNJ 17089540 (RWJ 669307)]
IC50 (COX1): > 10 µM
